Data published in EPA's ToxRefDB 2.

How the values were obtained:
rat [1] = conditions: Sub-acute repeat dose toxicity; sprague dawley; Oral; Gavage/Intubation; dose end: 28 day; group: systemic; systemic / clinical chemistry / alanine aminotransferase (alt/sgpt) / alanine aminotransferase (alt/sgpt) + systemic / clinical chemistry / …
dog [2] = conditions: Sub-acute repeat dose toxicity; beagle; Oral; Gavage/Intubation; dose end: 28 day; group: systemic; systemic / clinical chemistry / alanine aminotransferase (alt/sgpt) / alanine aminotransferase (alt/sgpt) + systemic / clinical chemistry / …
rat [3] = conditions: Other (NonGuideline or Guideline Not Listed); sprague dawley; Injection; Intravenous; dose end: 3 day; group: cannot be grouped; systemic / clinical chemistry / chloride / chloride + systemic / clinical chemistry / creatinine / creatinine + systemic / clinical …
rat [4] = conditions: Sub-acute repeat dose toxicity; sprague dawley; Injection; Intravenous; dose end: 13 day; group: systemic; systemic / clinical chemistry / alanine aminotransferase (alt/sgpt) / alanine aminotransferase (alt/sgpt) + systemic / clinical chemistry / …
rat [5] = conditions: Other (NonGuideline or Guideline Not Listed); wistar; Injection; Intravenous; dose end: 3 day; group: cannot be grouped; systemic / clinical chemistry / cholesterol / cholesterol + systemic / clinical chemistry / creatinine / creatinine + systemic / clinical …
mouse [6] = conditions: Other (NonGuideline or Guideline Not Listed); cd1; Injection; Intravenous; dose end: 7 day; group: cannot be grouped; systemic / clinical chemistry / alanine aminotransferase (alt/sgpt) / alanine aminotransferase (alt/sgpt) + systemic / clinical chemistry / …
rat [7] = conditions: Carcinogenicity, fischer, Oral, Feed, dose end: 78 week, group: systemic
mouse [8] = conditions: Carcinogenicity, b6c3f1, Oral, Feed, dose end: 78 week, group: systemic
rat [9] = conditions: Prenatal developmental toxicity study, sprague dawley, Oral, Gavage/Intubation, dose end: 19 GD
rat [10] = conditions: Multigenerational reproductive toxicity study, sprague dawley, Oral, Feed, dose end: 2 generation
rat [11] = conditions: Subchronic oral toxicity in rodents, sprague dawley, Feed, dose end: 90 day
dog [12] = conditions: Chronic toxicity; beagle; Oral; Feed; dose end: 60 week; group: systemic; systemic / clinical chemistry / thyroid stimulating hormone (thyrotropin) (tsh) / thyroid stimulating hormone (=thyrotropin) (tsh) + …
rat [13] = conditions: Prenatal developmental toxicity study, sprague dawley, Oral, Gavage/Intubation, dose end: 19 GD; remark: listed apart in the source
mouse [14] = conditions: Carcinogenicity; cd1; Oral; Feed; dose end: 18 month; group: systemic; systemic / pathology microscopic / bone marrow / hematopoietic cell proliferation + systemic / pathology microscopic / liver / hematopoietic…
rat [15] = conditions: Combined chronic toxicity/carcinogenicity; sprague dawley; Oral; Feed; dose end: 24 month; group: systemic; systemic / hematology / erythrocyte (rbc) count differential / erythrocyte (rbc) + systemic / hematology / hematocrit (hct) / hematocrit (…
[16] = systemic / in life observation / body weight / body weight
[17] = systemic / pathology microscopic / liver / carcinoma + systemic / pathology microscopic / zymbal's gland / squamous cell carcinoma + …
[18] = systemic / in life observation / body weight / body weight + systemic / pathology microscopic / liver / carcinoma + systemic / in life …
[19] = group: developmental, developmental / developmental malformation / bone / bent + developmental / developmental malformation / bone / delayed ossification + …
[20] = group: maternal, systemic / in life observation / clinical signs / [other] + systemic / pathology gross / spleen / discolored + systemic / pathology gross / …
[21] = group: offspring, systemic / in life observation / body weight / offspring (pup) weight + systemic / organ weight / liver / absolute + systemic / organ weight…
[22] = group: parental, systemic / organ weight / spleen / absolute + systemic / organ weight / spleen / relative to body weight + systemic / pathology microscopic…
[23] = group: cholinesterase, cholinesterase / cholinesterase / cholinesterase / plasma cholinesterase (che)
[24] = group: systemic, systemic / hematology / erythrocyte (rbc) count differential / erythrocyte (rbc) + systemic / hematology / hemoglobin (hgb) / hemoglobin (…
[25] = group: systemic, systemic / pathology microscopic / blood / focal cellular change
[26] = group: developmental, developmental / developmental malformation / bone / short
[27] = group: maternal, systemic / in life observation / body weight / body weight gain + systemic / in life observation / body weight / body weight + systemic / in…

SMILES: CNS(=O)(=O)c1cc(C(=O)N2CCC(CCN3C4CCC3CC(n3c(C)nc5ccccc53)C4)(c3cccc(F)c3)CC2)c(Cl)cc1F (stereo unspecified)
- LEL (rat [1]): 500 mg/kg/day
- LOAEL (rat [1]): > 2000 mg/kg/day
- NEL (rat [1]): < 500 mg/kg/day
- NOAEL (rat [1]): ≥ 2000 mg/kg/day
- LEL (dog [2]): 250 mg/kg/day
- LOAEL (dog [2]): > 750 mg/kg/day
- NEL (dog [2]): < 250 mg/kg/day
- NOAEL (dog [2]): ≥ 750 mg/kg/day

SMILES: C[C@@H](O)[C@H]1C(=O)N2C(C(=O)[O-])=C(CN3c4cccc5c(CC[N+]67CC[N+](CC(N)=O)(CC6)CC7)ccc(c45)S3(=O)=O)[C@H](C)[C@H]12.[Cl-]
- LEL (rat [3]): 150 mg/kg/day
- LOAEL (rat [3]): > 150 mg/kg/day
- NEL (rat [3]): < 150 mg/kg/day
- NOAEL (rat [3]): ≥ 150 mg/kg/day
- LEL (rat [4]): 150 mg/kg/day
- LOAEL (rat [4]): > 225 mg/kg/day
- NEL (rat [4]): 75 mg/kg/day
- NOAEL (rat [4]): ≥ 225 mg/kg/day
- LEL (rat [5]): 150 mg/kg/day
- LOAEL (rat [5]): > 225 mg/kg/day
- NEL (rat [5]): 75 mg/kg/day
- NOAEL (rat [5]): ≥ 225 mg/kg/day
- LEL (mouse [6]): 400 mg/kg/day
- LOAEL (mouse [6]): > 800 mg/kg/day
- NEL (mouse [6]): 200 mg/kg/day
- NOAEL (mouse [6]): ≥ 800 mg/kg/day

SMILES: c1ccc(NNc2ccccc2)cc1 [1,2-Diphenylhydrazine]
- LEL (rat [7]; [16]): 2 mg/kg/day
- NEL (rat [7]; [16]): < 2 mg/kg/day
- LOAEL (rat [7]; [17]): > 4 mg/kg/day
- NOAEL (rat [7]; [17]): ≥ 4 mg/kg/day
- LOAEL (mouse [8]; [16]): 60 mg/kg/day
- LEL (mouse [8]; [18]): 60 mg/kg/day
- NEL (mouse [8]; [18]): 6 mg/kg/day
- NOAEL (mouse [8]; [18]): 6 mg/kg/day

SMILES: CC(C)OC(=O)Nc1cccc(Cl)c1 [Chlorpropham]
- LEL (rat [9]; [19]): 2000 mg/kg/day
- LOAEL (rat [9]; [19]): 2000 mg/kg/day
- NEL (rat [9]; [19]): 400 mg/kg/day
- NOAEL (rat [9]; [19]): 400 mg/kg/day
- LEL (rat [9]; [20]): 400 mg/kg/day
- LOAEL (rat [9]; [20]): 400 mg/kg/day
- NEL (rat [9]; [20]): 40 mg/kg/day
- NOAEL (rat [9]; [20]): 40 mg/kg/day
- LEL (rat [10]; [21]): 150 mg/kg/day
- LOAEL (rat [10]; [21]): 150 mg/kg/day
- NEL (rat [10]; [21]): 50 mg/kg/day
- NOAEL (rat [10]; [21]): 50 mg/kg/day
- LEL (rat [10]; [22]): 150 mg/kg/day
- LOAEL (rat [10]; [22]): 150 mg/kg/day
- NEL (rat [10]; [22]): 50 mg/kg/day
- NOAEL (rat [10]; [22]): 50 mg/kg/day
- LEL (rat [11]; [23]): 1140 mg/kg/day
- LOAEL (rat [11]; [23]): > 1140 mg/kg/day
- NEL (rat [11]; [23]): 279 mg/kg/day
- NOAEL (rat [11]; [23]): ≥ 1140 mg/kg/day
- LOAEL (rat [11]; [24]): 276 mg/kg/day
- NOAEL (rat [11]; [24]): 64.8 mg/kg/day
- LEL (rat [11]; [25]): 15.9 mg/kg/day
- NEL (rat [11]; [25]): < 15.9 mg/kg/day
- LEL (dog [12]): 5 mg/kg/day
- LOAEL (dog [12]): 50 mg/kg/day
- NEL (dog [12]): < 5 mg/kg/day
- NOAEL (dog [12]): 5 mg/kg/day
- LEL (rat [13]; [26]): 1000 mg/kg/day
- LOAEL (rat [13]; [26]): 1000 mg/kg/day
- NEL (rat [13]; [26]): 350 mg/kg/day
- NOAEL (rat [13]; [26]): 350 mg/kg/day
- LOAEL (rat [13]; group: maternal, systemic / in life observation / body weight / body weight gain): 350 mg/kg/day
- NEL (rat [13]; [27]): 100 mg/kg/day
- NOAEL (rat [13]; [27]): 100 mg/kg/day
- LEL (rat [13]; group: maternal, systemic / in life observation / body weight / body weight gain + systemic / in life observation / clinical signs / red or crusty deposits …): 350 mg/kg/day
- LEL (mouse [14]): 519 mg/kg/day
- LOAEL (mouse [14]): 519 mg/kg/day
- NEL (mouse [14]): 108 mg/kg/day
- NOAEL (mouse [14]): 108 mg/kg/day
- LEL (rat [15]): 100 mg/kg/day
- LOAEL (rat [15]): 100 mg/kg/day
- NEL (rat [15]): 30 mg/kg/day
- NOAEL (rat [15]): 30 mg/kg/day
